What was measured:
human NK1 receptor = target: T1, human NK1 receptor (Homo sapiens, UniProt P25103); assay: FLIPR assay, inhibition of human NK1 receptor activation (intracellular Ca2+); type: cell-based; settings: CHO cells with human NK1 receptor, agonist Substance P, read-out: pKB (NK1) (converted)
T1 construct: expressed in transfected cells; host or cells: CHO cells (AstraZeneca R&D Wilmington), cDNA in pRcCMV
Procedure: (§1) Chinese Hamster Ovary (CHO) K1 cells (obtained from ATCC) were stably transfected with the human NK2 receptor (hNK2R cDNA in pRc/CMV, Invitrogen) or the human NK3 receptor (hNK3R in pcDNA 3.1/Hygro (+)/IRES/CD8, Invitrogen vector modified at AstraZeneca EST-Bio UK, Alderley Park). The cells were transfected with the cationic lipid reagent LIPOFECTAMINE™ (Invitrogen) and selection was performed with Geneticin (G418, Invitrogen) at 1 mg/ml for the hNK2R transfected cells and with Hygromycin (Invitrogen) at 500 μg/ml for the hNK3R transfected cells. Single cell clones were collected by aid of Fluorescence Activated Cell Sorter (FACS), tested for functionality in a FLIPR assay (see below), expanded in culture and cryopreserved for future use. CHO cells stably transfected with human NK1 receptors originates from AstraZeneca R&D, Wilmington USA. Human NK1 receptor cDNA (obtained from RNA-PCR from lung tissue) was subcloned into pRcCMV (Invitrogen). Transfection was performed by Calcium Phosphate and selection with 1 mg/ml G418. […]
(§2) The activity of a compound of the invention to inhibit NK1/NK2/NK3 receptor activation measured as NK1/NK2/NK3 receptor mediated increase in intracellular Ca^2+ was assessed by the following procedure: […]

[1] = target: hERG-encoded potassium channel (Homo sapiens, UniProt Q12809); assay: Activity against hERG (planar-array-based voltage clamp, Kiss et al.); type: cell-based
Text: The activity of compounds according to formula I against the hERG-encoded potassium channel can be determined according to Kiss L, et al. Assay Drug Dev Technol. 1 (2003), 127-35: “High throughput ion-channel pharmacology: planar-array-based voltage clamp”.

human NK2 receptor = target: T2, human NK2 receptor (Homo sapiens, UniProt P21452); assay: FLIPR assay, inhibition of human NK2 receptor activation (intracellular Ca2+); type: cell-based; settings: CHO cells with human NK2 receptor, agonist NKA, read-out: pKB (NK2) (converted)
T2 construct: expressed in transfected cells; host or cells: CHO-K1 cells (ATCC), hNK2R cDNA in pRc/CMV
T2 sequence (P21452 1-398): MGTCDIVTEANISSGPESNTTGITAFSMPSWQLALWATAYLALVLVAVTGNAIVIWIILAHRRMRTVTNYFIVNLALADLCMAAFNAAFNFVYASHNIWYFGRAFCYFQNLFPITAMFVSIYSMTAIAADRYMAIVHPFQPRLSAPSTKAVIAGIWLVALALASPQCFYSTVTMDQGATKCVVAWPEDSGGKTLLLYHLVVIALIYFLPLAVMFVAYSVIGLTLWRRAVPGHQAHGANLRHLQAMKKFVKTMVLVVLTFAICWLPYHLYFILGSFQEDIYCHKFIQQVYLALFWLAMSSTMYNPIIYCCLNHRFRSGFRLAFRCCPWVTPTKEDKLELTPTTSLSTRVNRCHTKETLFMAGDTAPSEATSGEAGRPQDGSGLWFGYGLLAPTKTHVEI
Procedure: as §1, §2

CYP3A4 = CYP3A4 (Homo sapiens, UniProt P08684); assay: CYP3A4 inhibition assay (Bapiro et al.); type: in vitro ADME
Text: It is well known that severe problems such as toxicity may occur if plasma levels of one medication are altered by the co-administration of another drug. […] CYP (cytochrome P450) 3A4 is the most important enzyme in the human liver as a majority of oxidised drugs have been biotransformed by this enzyme. Accordingly, it is undesirable to employ a medication having a significant degree of such liver enzyme inhibiting properties. […] Thus, there is a need for a novel NK receptor antagonist with improved pharmacokinetic properties. The present invention provides compounds with CYP3A4 enzyme inhibiting properties at a low level, as comparatively high IC50 values are obtained in a CYP3A4 inhibiting assay. Said method for determining CYP3A4 inhibition is described in Bapiro et al; Drug Metab. Dispos. 29, 30-35 (2001).
The IC50 values tested according to Bapiro et al; Drug Metab. Dispos. 29, 30-35 (2001) were generally greater than 2 μM.

human NK3 receptor = target: T3, human NK3 receptor (Homo sapiens, UniProt P29371); assay: FLIPR assay, inhibition of human NK3 receptor activation (intracellular Ca2+); type: cell-based; settings: CHO cells with human NK3 receptor, agonist Pro-7-NKB, read-out: pKB (NK3) (converted)
T3 construct: expressed in transfected cells; host or cells: CHO-K1 cells (ATCC), hNK3R in pcDNA 3.1/Hygro (+)/IRES/CD8
T3 sequence (P29371 1-465): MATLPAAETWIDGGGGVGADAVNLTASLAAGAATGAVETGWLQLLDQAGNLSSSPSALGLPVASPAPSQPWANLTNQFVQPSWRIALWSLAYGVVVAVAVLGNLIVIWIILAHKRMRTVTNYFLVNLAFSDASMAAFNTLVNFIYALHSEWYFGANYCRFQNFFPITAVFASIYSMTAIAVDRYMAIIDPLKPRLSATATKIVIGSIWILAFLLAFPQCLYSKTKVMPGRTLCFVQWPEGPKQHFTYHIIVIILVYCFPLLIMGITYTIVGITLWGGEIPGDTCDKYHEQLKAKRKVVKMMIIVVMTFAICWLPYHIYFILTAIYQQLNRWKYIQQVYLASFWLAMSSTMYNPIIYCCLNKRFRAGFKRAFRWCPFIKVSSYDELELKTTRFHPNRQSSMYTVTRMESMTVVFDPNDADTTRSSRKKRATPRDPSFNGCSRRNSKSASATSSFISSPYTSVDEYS
Procedure: as §1, §2

[2] = Metabolic stability in liver microsomes (HLM); type: in vitro ADME; settings: pH 7.4; human liver microsomes
Procedure: Stability against human microsomal metabolism in vitro is indicative of stability towards metabolism in vivo.
The metabolic stability of compounds according to formula I can be determined as described below: […]
The rate of biotransformation can be measured as either metabolite(s) formation or the rate of disappearance of the parent compound. The experimental design involves incubation of low concentrations of substrate (usually 1.0 μM) with liver microsomes (usually 0.5 mg/ml) and taking out aliquots at varying time points (usually 0, 5, 10, 15, 20, 30, 40 min.). The test compound is usually dissolved in DMSO. The DMSO concentration in the incubation mixture is usually 0.1% or less since more solvent can drastically reduce the activities of some CYP450s. Incubations are done in 100 mM potassium phosphate buffer, pH 7.4 and at 37° C. Acetonitrile or methanol is used to stop the reaction.

[3] = target: T4, Human Neurokinin-2 (NK2) Receptor (Homo sapiens, UniProt P21452); settings: Bioorg. Med. Chem. Lett. (2003), 13, 2211-2215; cited from earlier work
T4 sequence (P21452 1-398): T2 sequence (P21452 1-398)

T1 sequence (P25103 whole entry): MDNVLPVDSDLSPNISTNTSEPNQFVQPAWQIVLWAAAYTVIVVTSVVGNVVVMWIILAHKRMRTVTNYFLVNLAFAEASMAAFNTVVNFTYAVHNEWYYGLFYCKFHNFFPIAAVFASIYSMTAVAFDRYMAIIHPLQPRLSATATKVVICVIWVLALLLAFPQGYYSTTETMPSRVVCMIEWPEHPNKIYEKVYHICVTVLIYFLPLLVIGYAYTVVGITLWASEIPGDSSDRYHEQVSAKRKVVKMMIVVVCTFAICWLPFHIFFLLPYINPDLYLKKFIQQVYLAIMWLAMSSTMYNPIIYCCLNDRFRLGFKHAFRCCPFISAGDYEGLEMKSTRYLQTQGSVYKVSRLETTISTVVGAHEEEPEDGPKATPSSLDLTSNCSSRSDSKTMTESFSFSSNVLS
Sequence of hERG-encoded potassium channel (Q12809 whole entry): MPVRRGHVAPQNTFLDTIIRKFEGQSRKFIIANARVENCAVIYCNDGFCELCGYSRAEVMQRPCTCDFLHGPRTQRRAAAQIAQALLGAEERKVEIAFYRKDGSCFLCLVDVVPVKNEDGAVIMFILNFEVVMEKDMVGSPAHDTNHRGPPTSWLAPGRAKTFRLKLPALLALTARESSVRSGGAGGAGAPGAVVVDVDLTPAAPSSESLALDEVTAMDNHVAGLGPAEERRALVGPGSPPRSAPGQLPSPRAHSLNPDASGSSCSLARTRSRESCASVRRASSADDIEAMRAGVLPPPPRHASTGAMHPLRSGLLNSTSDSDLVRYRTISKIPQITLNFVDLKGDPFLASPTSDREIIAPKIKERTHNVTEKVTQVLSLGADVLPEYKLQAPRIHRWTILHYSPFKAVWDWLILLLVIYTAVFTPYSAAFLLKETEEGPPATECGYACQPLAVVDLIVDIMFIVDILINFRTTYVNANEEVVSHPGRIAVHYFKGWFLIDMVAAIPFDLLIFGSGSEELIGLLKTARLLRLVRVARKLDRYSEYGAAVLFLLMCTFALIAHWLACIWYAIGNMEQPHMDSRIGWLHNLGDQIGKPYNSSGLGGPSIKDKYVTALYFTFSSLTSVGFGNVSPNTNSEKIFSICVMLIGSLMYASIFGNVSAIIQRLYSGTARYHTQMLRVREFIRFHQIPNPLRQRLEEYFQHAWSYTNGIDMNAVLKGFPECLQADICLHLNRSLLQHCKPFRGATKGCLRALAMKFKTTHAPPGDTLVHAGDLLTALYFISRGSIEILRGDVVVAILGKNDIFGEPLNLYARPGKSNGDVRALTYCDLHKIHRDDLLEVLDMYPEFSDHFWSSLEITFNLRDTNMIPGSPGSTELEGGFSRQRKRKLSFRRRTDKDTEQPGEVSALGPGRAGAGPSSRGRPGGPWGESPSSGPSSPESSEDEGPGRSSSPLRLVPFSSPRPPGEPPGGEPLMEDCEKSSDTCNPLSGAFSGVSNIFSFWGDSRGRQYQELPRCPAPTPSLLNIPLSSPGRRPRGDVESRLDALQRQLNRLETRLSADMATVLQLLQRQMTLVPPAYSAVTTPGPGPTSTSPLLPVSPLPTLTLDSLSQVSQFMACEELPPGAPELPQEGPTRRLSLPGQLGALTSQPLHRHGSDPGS
Sequence of CYP3A4 (P08684 whole entry): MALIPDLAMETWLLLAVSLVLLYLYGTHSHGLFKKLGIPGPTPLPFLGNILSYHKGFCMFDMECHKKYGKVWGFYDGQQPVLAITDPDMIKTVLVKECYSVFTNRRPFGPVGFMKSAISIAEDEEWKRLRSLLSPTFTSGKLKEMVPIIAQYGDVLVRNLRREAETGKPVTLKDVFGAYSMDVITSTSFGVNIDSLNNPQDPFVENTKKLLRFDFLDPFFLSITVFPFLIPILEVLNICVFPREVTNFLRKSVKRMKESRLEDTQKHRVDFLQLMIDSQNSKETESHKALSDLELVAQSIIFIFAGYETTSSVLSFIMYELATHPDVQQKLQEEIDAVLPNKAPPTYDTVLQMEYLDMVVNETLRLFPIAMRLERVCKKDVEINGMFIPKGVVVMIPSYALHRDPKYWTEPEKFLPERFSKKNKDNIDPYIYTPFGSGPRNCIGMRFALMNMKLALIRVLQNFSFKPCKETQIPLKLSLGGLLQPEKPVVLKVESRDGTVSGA

Kb (human NK1 receptor) [nM] | Kb (human NK2 receptor) [nM] | IC50 (CYP3A4) [nM] | Kb (human NK3 receptor) [nM] | microsomal CLint at 1 μM [2] [µL/min/mg] | Compound | IC50 [1] [nM] | functional NK2 receptor antagonism [3]
7.94 | 25.1 | 19200 | 20 | 40.7 | CN(C[C@@H](CCN1CC(N2CCOC[C@H]2CCO)C1)c1ccc(F)cc1)C(=O)c1cc(Br)cc(C(F)(F)F)c1 [Ex 5, 3-Bromo-N-((2S)-2-(4-fluorophenyl)-4-{3-[(3R)-3-(2-hydroxyethyl)morpholin-4-yl]azetidin-1-yl}butyl)-N-methyl-5-(trifluoromethyl)benzamide] | 18800 | 
 |  |  |  |  | CN(CC(CCN1CC(N2CCOCC2)C1)c1ccc(Cl)c(Cl)c1)C(=O)c1ccccc1 (stereo not shown) [N-[2-(3,4-dichlorophenyl)-4-(3-morpholin-4-ylazetidin-1-yl)butyl]-N-methylbenzamide] |  | functional NK2 receptor antagonistic properties
